Assay [1] concerns human peripheral blood mononuclear cells (PBMCs). Briefly: Cytokine/chemokine induction in fresh human PBMCs. It counts as cell-based. Here is the method:
(§1) Peripheral blood mononuclear cells (PBMCs) are isolated from the blood of healthy donors via a Ficoll Hypaque 1.077 gradient and treated with agonists or are used to isolate adherent monocytes in monocyte media (RPMI 1640 (ATCC), 10% human AB serum (Lonza/BioWhittaker), 100 U/mL penicillin/100 ug/mL streptomycin (Sigma), 50 uM 2-mercaptoethanol (Sigma) as described (Stover et al. 4440-49; Kawai et al. 5887-94; Gervassi et al. 7231-39). Monocyte-derived macrophages are produced by incubating adherent monocytes for 5 days in monocyte media with 50 ng/mL rhM-CSF (R&D Systems) with media changes at day 3 and day 5 before agonist treatment. Monocyte-derived dendritic cells (DC) are produced by incubating adherent monocytes for 7 days in monocyte media with 10 ng/mL rhGM-CSF and 10 ng/mL rhIL-4 (R&D Systems) with media changes on day 3 and day 6.
Expression of TNFα and MIP-1α are dependent upon signaling through the TLR4 adaptor, MyD88, while expression of IP-10 and RANTES are dependent upon signaling through the TLR4 adaptor, TRIF/TICAM-1 (Hoebe et al, Kawai et al).

In a further assay the target is T1, TLR4 receptor complex (Homo sapiens, UniProt O00206+Q9Y6Y9).
T1 construct: endogenous in cells; host or cells: primary human adherent monocytes isolated from PBMCs of healthy donors
T1 sequence (O00206 24-839): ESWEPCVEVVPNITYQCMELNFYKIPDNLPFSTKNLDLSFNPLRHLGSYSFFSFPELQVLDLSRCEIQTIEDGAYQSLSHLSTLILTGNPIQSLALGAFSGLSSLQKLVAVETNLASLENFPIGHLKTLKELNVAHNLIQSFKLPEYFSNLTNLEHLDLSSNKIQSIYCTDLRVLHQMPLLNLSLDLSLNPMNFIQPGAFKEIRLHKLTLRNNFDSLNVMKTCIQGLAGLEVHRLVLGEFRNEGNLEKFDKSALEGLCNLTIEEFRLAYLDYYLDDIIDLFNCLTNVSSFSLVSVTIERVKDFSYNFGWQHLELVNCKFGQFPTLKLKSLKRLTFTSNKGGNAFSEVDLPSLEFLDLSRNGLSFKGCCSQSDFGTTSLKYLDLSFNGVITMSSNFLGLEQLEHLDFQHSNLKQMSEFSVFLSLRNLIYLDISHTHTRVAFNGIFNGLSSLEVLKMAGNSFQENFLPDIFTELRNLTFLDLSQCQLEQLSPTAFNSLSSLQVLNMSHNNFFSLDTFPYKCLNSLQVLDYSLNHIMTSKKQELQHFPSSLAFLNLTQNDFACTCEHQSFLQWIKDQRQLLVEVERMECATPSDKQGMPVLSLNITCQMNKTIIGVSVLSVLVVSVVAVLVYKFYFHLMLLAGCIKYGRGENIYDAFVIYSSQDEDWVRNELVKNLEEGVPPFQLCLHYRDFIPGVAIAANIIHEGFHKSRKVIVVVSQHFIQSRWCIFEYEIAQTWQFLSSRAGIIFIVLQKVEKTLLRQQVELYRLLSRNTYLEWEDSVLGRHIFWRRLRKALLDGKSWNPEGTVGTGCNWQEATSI
T1 sequence (Q9Y6Y9 19-160): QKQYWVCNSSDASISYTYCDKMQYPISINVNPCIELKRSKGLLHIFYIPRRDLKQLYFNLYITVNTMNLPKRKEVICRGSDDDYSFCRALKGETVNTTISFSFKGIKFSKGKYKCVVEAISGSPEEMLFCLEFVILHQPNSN
Briefly: Inhibition of CRX-527- or LPS-induced cytokines by CRX-547 in primary human adherent monocytes. The class given is cell-based. Conditions: for IC50: added simultaneously. As to the method: as §1
CRX-527 signals through the TLR4/MD2 receptor complex leading to activation of transcription factors that lead to induction of cytokines and chemokines. […] (FIG. 10).
To that end, human primary monocytes are treated with a dose range of CRX-527 in the presence of increasing concentrations of CRX-547.
The resulting dose-response curves are fit with a 4 parameter logistic equation.
Plotting the log EC50 shift (DR-1) for each concentration of CRX-547 versus the log of the concentration of CRX-547 (Schild regression) allows us to compare the calculated affinity (Kbapp) with the EC50 for CRX-547 calculated from the CRX-547 and CRX-527 dose-response curve. […] (FIG. 10B.)

[2] abbreviates: compared among LPS, CRX-527, CRX-547.

Like-named read-outs stand apart in the source and are kept apart here.

Usually IC50 stands for the concentration at which inhibition is half-maximal.

With `CCCCCCCCCCCC(CC(=O)NC(COC1OC(CO)C(OP(=O)(O)O)C(OC(=O)CC(CCCCCCCCCCC)OC(=O)CCCCCCCCC)C1NC(=O)CC(CCCCCCCCCCC)OC(=O)CCCCCCCCC)C(=O)O)OC(=O)CCCCCCCCC.CCN(CC)CC` (stereo not shown) [CRX-547], in assay [1] (setting [2]), the “induction of MIP-1α (MyD88-dependent)” value is “significantly lower levels” and the “induction of TNFα (MyD88-dependent)” value is given as “significantly lower levels”. In assay [1] (relative to CRX-527 and LPS), the “induction of IP-10 (TRIF-dependent)” value is reported as “comparable levels” and the “induction of RANTES (TRIF-dependent)” value was “comparable levels”. The “effect of CRX-547 on MCP-1 (TRIF-dependent) induction by fixed CRX-527 or LPS” value on TLR4 receptor complex (at higher concentrations of CRX-547) is on record as “increased additively”. In addition, at TLR4 receptor complex (fixed CRX-527 100 nM, read-out: IC50 for inhibition of TNFα induction by CRX-527), the IC50 worked out at 48 ± 30 nM. Besides, the IC50 on TLR4 receptor complex (fixed LPS 100 nM, read-out: IC50 for inhibition of TNFα induction by LPS) was determined as 18 ± 12 nM. For the same compound, on TLR4 receptor complex (increasing CRX-547 added prior to CRX-527 or LPS), the “effect of CRX-547 on TNFα induction by fixed concentration of CRX-527 or LPS” value is “inhibited”. At TLR4 receptor complex (relative to CRX-527 and LPS, monocytic cells), the “agonist character for induction of MyD88-dependent cytokines/chemokines” value is “partial agonist”. For the same compound, the Kd on TLR4 receptor complex (shift of CRX-527-induced TNFα dose-response curves, read-out: affinity estimate (Kbapp) by Schild regression) was 0.33 nM.

These data come from patent US8629116B2, “Method for inducing a TRIF-bias” (priority 2008, dated 2014).
